Data: patent publication US11761894B2, “Silicon-rhodamine fluorescent probe containing hydrophobic group and use thereof” (AJOU UNIVERSITY INDUSTRY—ACADEMIC COOPERATION FOUNDATION, priority 2019, dated 2023)

Experiments:
[1] = tested on: Mitochondria-YFP Chang liver cells; assay: Mitochondrial targeting efficiency in Chang liver cells expressing mitochondrial YFP; type: cell-based, human; settings: 1 μM, 60 min
Procedure: (a) HeLa and Hep3B cells were incubated with MitoTracker Green (0.5 μM), and SiR-Mito 8 (1 μM) for 1 h. After washing 3 times with fresh media, fluorescent live cell images were acquired with LEICA DMi8 microscope. (MitoTracker green: FITC channel, SiR-Mito 8: Cy 5 channel, Scale bar: 15 μm); (b) Chang liver cells expressing mitochondrial YFP were incubated with SiR-Mito 8 (1 μM) for 1 h. After washing 3 times with fresh media, fluorescent live cell images were acquired with LEICA DMi8 microscope. (Mitochondrial-YFP: Rhodamine channel, Scale bar: 15 μm).
The mitochondrial targeting efficiency of SiR-Mito 8 in live cells was examined by high-resolution imaging.
To this end, Overexpression plasmid for Mitochondria-YFP was obtained from Catholic University (Seoul, Korea) and transfected into Chang liver cells. Stable clones expressing Mitochondria-YFP was selected using 0.25 mg/ml G418. Next, Mitochondria-YFP infected Chang liver cells were cultured in Dulbecco's modified eagle media (DMEM, GIBCO) containing 10% fetal bovine serum (FBS, GIBCO) and 1% penicillin (GIBCO) at 37° C. in a humidified incubator with 5% CO2. For the fluorescence microscope imaging, cells were harvested using TrypLE™ Express (GIBCO) and resuspended in fresh culture medium. […] Cells were washed three times with 1×PBS and observed with inverted fluorescence microscope (DMi8, LEICA).

[2] = Photophysical properties (excitation/emission wavelength, absolute quantum yield, fluorescence intensity in PBS); type: physicochemical
Procedure: All reactions were carried out under an atmosphere of nitrogen or argon in air-dried glassware with magnetic stirring. Air- and/or moisture-sensitive liquids were transferred with syringe. Organic solutions were concentrated by rotary evaporation at 25-60° C. at 15-30 torr. All solvents and common materials were purchased from suppliers and used without further purification. Column chromatography was carried out as “Flash Chromatography” using Biotage MPLC machine. ^1H NMR and ^13C NMR data were recorded on an JEOL ECZ-600R Magnetic Resonance System (600 MHz) in Ajou University. Recorded shifts are reported in parts per million (6): Chemical shift, multiplicity (s=singlet, d=doublet, t=triplet, q=quartet, m=multiplet, br=broad), coupling constant (J, Hz) and integration. Low resolution mass spectrometry (LRMS) was obtained by LC/MS system, Finnigan MSQplus Surveyer (Thermo Scientific) or 6120 Quadrupole LC/MS (Agilent Technologies). The progress of reaction was monitored using thin layer chromatography (TLC) (silica gel 60, F254 0.25 mm), and components were visualized by observation under UV light (254 and 365 nm) or by treating the TLC plates with Phosphonolybdic acid (PMA), KMnO4, or ninhydrin followed by heating. Cell culture reagents including fatal bovine serum, culture media, and antibiotic-antimycotic solution were purchased from GIBCO. MitoTracker Green, and Hoechst were purchased from Invitrogen. The culture dish and glassbottom dish were purchased from CORNING, and SPL. All spectra experiments were performed in a 1×1 cm quartz cuvette. Fluorescence emission spectra were recorded on JASCO FP-8200 spectrofluorometer, and UV absorption spectra were recorded on JASCO V-670 spectrophotometer. Absolute quantum yield was measured by QE-2000 (Otsuka Electronics).

[3] = tested on: Hep3B liver cancer cells vs L02 or Chang normal liver cells; assay: Comparison of fluorescence intensity between normal cells and cancer cells; type: cell-based, human; settings: 1 μM, 1 h
Procedure: (a) Cells were incubated with full growth media containing SiR-Mito 8 (1 μM) and Hoechst dye (0.01 μg/ml) for 1 h. The cells were washed 3 times with growth media and observed with a LEICA DMi8 fluorescent microscope. […] (b) Quantification of the fluorescence intensity of SiR-Mito 8 in L02, Chang liver and in Hep3B cells. Scale bar: 50 μm.
Therefore, the present inventors envisioned that SiR-Mito 8 could differentiate cancer cells from normal cells without involving ligand conjugation. For fluorescent tumor imaging, human liver cancer Hep3B cells and the human hepatocyte line L02 were incubated with 1.0 μM SiR-Mito 8 for 1 hour, washed three times with cell growth media, and imaged using a LEICA DMi8 fluorescence microscope.
Specifically, Hep3B human liver cancer cells were cultured in Dulbecco's modified eagle media (DMEM, GIBCO) containing 10% fetal bovine serum (FBS, GIBCO) and 1% penicillin (GIBCO), and L02 or Chang human liver normal cells were cultured in Roswell Park Memorial Institute (RPMI, CAPRICORN) 1640 with L-Glutamine containing 10% FBS (GIBCO) and 1% Penicillin (HyClone) at 37° C. in a humidified incubator with 5% CO2. For the fluorescence microscope imaging, cells were harvested using TrypLE™ Express (GIBCO) and resuspended in fresh culture medium. […] Cells were washed with cell culture media for three times and observed with inverted fluorescence microscope (DMi8, LEICA).

With “N-(10-(5-((cyclooctylmethyl) carbamoyl)-2-methylphenyl)-7-(dimethylamino)-5,5-dimethyldibenzo[b,e]silin-3(5H)-ylidene)-N-methylmethanaminium [SiR-Mito 8]” the Mitochondrial targeting efficiency [1] was “high mitochondrial targeting efficiency”, the “Em (emission wavelength)” value [2] was 668 nm and the “Ex (excitation wavelength)” value [2] was 651 nm. The “Φ (quantum yield)” value ([2]; absolute quantum yield) was 0.33 and the “Fluorescence intensity in cancer cells versus normal cells” value [3] was “higher fluorescence intensity than normal cells”.
